Results taken from ChEMBL document CHEMBL5252622, “Discovery of a brain-sparing GIRK1/4 inhibitor for pharmacological cardioversion of atrial fibrillation” (Bioorg Med Chem Lett, 2023).
Values after ≈ are worked out from the molar mass of the structure shown. Active and inactive are the calls of the source. No cut-off for these calls is given here.

Assays:
MDCK = assay: Substrate activity at p-glycoprotein in MDCK cells overexpressing MDR1 assessed as efflux ratio of permeability from basolateral to apical side over apical to basolateral side; format: cell-based; settings: Canis lupus familiaris
[1] = Apparent permeability across apical to basolateral side in MDCK cells; format: ADME, cell-based, Canis lupus familiaris; settings: dog
[2] = Aqueous solubility of the compound at pH 6.8; format: physicochemical
[3] = biological target: T1, Potassium voltage-gated channel subfamily KQT member 1 (Homo sapiens, UniProt P51787); assay: Inhibition of recombinant human KCNQ1; format: toxicity
T1 sequence (P51787 whole entry): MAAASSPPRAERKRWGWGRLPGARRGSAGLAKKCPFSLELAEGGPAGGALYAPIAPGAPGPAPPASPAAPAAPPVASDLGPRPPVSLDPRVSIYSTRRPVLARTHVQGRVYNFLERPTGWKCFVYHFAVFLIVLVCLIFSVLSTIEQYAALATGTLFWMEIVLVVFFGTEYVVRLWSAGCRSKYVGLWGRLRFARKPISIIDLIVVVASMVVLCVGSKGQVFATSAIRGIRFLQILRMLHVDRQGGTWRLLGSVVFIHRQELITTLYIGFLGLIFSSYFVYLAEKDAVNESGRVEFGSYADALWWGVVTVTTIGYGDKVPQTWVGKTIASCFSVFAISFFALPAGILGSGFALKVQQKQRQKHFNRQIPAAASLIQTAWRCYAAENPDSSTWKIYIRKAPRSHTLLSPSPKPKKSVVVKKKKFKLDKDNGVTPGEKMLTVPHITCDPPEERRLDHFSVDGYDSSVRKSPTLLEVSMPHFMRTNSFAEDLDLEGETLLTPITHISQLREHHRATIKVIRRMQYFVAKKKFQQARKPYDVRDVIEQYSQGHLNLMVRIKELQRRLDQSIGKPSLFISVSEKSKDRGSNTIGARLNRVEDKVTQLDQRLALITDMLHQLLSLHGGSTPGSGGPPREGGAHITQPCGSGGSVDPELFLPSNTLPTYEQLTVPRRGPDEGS

[4] = biological target: Voltage-dependent L-type calcium channel subunit alpha-1C (Homo sapiens, UniProt Q13936); assay: Inhibition of recombinant human Cav1.2; format: toxicity
[5] = biological target: Voltage-gated inwardly rectifying potassium channel KCNH2 (Homo sapiens, UniProt Q12809); assay: Inhibition of recombinant hERG in the presence of dofetilide by competitive binding assay; format: toxicity
Sequence of Voltage-gated inwardly rectifying potassium channel KCNH2 (Q12809 whole entry): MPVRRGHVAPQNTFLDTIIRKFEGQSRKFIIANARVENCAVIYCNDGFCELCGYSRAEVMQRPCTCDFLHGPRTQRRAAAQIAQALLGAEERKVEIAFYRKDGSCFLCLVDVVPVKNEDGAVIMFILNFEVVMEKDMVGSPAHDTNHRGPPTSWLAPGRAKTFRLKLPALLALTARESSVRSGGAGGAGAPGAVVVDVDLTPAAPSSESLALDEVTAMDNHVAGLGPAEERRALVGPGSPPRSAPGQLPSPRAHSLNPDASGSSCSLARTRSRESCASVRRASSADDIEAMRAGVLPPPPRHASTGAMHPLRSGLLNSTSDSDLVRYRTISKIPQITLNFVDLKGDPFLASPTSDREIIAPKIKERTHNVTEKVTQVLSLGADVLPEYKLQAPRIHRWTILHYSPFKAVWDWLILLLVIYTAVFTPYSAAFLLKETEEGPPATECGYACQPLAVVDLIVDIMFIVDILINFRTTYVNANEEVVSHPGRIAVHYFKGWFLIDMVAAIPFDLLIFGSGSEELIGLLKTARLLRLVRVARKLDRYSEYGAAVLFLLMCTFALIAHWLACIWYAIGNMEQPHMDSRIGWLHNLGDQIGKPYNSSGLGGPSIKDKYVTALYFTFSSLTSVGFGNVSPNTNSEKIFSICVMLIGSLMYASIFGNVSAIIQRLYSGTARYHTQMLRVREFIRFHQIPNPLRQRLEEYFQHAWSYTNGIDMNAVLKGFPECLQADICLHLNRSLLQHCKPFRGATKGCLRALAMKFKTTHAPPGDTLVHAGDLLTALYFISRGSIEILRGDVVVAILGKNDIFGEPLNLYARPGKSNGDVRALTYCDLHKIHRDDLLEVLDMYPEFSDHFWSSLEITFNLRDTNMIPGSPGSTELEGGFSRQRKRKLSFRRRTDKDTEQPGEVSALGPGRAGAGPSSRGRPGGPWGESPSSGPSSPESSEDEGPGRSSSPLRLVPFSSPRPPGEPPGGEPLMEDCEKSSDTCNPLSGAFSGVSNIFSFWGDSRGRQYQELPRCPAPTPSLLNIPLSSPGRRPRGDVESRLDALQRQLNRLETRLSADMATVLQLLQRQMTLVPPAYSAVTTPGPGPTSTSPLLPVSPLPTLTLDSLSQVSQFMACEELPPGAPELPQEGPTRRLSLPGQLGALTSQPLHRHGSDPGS

[6] = biological target: Sodium channel protein type 5 subunit alpha (Homo sapiens, UniProt Q14524); assay: Inhibition of recombinant human Nav1.5; format: toxicity
Sequence of Sodium channel protein type 5 subunit alpha (Q14524 whole entry): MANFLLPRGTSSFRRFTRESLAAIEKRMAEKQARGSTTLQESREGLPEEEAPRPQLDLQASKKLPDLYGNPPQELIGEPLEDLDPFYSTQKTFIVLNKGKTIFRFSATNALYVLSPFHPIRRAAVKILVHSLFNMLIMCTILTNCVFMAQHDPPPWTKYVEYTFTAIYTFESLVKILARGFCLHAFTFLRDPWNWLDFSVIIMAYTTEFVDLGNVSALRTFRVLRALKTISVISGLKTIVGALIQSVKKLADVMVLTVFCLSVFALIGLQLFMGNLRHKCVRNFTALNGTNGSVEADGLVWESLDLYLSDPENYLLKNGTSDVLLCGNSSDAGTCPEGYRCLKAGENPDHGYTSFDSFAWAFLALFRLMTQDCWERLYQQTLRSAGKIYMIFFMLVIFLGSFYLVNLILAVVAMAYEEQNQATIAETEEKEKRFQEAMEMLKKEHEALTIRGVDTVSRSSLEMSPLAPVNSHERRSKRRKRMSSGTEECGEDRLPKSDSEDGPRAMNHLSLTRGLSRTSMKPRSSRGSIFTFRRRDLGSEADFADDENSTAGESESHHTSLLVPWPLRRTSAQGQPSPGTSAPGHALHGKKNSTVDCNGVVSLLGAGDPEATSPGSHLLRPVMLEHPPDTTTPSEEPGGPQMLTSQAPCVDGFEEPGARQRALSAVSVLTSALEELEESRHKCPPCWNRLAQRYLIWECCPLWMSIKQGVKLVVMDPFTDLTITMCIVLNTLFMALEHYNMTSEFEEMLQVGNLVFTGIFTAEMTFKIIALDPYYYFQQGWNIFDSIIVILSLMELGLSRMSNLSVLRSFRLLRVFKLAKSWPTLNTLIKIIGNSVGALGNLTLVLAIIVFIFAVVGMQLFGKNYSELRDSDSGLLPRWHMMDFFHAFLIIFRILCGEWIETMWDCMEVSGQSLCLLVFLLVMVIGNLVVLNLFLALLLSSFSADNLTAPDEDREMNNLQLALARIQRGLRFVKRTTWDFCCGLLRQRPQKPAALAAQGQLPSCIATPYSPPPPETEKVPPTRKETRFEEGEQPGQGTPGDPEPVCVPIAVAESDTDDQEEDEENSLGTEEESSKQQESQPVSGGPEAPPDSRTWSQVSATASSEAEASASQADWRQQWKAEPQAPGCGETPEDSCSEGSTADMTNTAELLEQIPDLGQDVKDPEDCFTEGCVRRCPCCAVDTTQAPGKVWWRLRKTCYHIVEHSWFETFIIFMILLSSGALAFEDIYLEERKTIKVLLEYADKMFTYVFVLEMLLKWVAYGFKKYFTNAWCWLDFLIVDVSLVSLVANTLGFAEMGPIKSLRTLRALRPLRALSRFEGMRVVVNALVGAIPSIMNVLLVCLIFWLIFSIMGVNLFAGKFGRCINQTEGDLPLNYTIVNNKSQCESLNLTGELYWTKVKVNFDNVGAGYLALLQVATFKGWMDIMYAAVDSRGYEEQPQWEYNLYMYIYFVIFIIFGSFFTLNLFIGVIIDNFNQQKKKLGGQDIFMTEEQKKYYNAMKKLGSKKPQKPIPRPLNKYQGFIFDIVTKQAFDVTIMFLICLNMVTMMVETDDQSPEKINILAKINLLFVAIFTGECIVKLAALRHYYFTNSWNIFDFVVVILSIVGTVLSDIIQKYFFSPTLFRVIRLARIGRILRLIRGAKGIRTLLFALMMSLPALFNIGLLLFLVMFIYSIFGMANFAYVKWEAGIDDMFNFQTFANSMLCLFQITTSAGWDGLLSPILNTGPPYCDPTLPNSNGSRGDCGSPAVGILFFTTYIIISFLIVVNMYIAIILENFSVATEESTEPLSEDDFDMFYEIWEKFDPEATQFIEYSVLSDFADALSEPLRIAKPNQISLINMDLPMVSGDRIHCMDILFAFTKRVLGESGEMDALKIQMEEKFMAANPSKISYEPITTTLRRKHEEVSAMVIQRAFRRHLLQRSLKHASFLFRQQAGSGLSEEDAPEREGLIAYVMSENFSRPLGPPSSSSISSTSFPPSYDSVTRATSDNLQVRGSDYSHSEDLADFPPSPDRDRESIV

[7] = Intrinsic clearance in rat liver microsomes; format: ADME, Microsome; settings: read-out: CLH
[8] = Intrinsic clearance in human liver microsomes; format: ADME, Microsome; settings: read-out: CLH
[9] = biological target: Kir3.1/Kir3.2 (Homo sapiens) (UniProt P48549+P48051); assay: Inhibition of recombinant human GIRK1/2 channel; format: protein-complex assay
Kir3.1/Kir3.4 = biological target: T2, Kir3.1/Kir3.4 (Homo sapiens, UniProt P48544+P48549); assay: Inhibition of recombinant human GIRK1/4 channel; format: protein-complex assay
T2 sequence (P48549 whole entry): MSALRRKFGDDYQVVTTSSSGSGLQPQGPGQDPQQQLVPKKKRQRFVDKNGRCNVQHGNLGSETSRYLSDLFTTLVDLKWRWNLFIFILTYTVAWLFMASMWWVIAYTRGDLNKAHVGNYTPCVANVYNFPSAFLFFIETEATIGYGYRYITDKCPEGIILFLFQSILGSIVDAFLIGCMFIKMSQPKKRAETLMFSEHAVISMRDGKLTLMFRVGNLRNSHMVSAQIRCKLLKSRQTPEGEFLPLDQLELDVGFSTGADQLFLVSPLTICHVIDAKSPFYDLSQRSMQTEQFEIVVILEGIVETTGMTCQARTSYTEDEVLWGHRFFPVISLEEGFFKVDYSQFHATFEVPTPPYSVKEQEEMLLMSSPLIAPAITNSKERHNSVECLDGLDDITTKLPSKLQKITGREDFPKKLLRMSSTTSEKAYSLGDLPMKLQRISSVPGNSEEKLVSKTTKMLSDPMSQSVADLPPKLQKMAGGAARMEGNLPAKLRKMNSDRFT
T2 sequence (P48544 whole entry): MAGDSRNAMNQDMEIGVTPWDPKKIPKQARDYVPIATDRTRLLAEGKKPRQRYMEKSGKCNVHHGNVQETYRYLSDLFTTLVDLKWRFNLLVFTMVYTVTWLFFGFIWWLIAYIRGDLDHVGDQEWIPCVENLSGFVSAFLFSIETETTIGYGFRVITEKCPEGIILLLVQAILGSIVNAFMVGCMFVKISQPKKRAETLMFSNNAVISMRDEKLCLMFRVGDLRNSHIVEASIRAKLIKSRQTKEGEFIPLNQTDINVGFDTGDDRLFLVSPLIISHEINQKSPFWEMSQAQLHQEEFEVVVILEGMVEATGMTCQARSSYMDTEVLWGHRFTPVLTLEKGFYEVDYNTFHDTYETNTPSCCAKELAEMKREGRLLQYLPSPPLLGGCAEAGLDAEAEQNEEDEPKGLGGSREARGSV

Papp A→B [1] [×10⁻⁶ cm/s] | solubility [2] [µM] | microsomal CLint [7] [µL/min/mg] | microsomal CLint [8] [µL/min/mg] | inhibition [9] | IC50 (Kir3.1/Kir3.4) [nM] | SMILES | Ratio (MDCK) | IC50 [3] [nM] | IC50 [4] [nM] | IC50 [5] [nM] | IC50 [6] [nM]
23 | 600 (≈ 319 µg/mL) | – | – | – | – | Cc1cc(=O)c2c(OCCOCCOCCOCCO)ncc(Cl)c2n1-c1c(Cl)cccc1Cl | 5.7 | – | – | – | –
– | 13 (≈ 4.93 µg/mL) | 236 | 77 | inactive | 50 | CSc1c(C#N)c(=O)c2ccc(F)cc2n1-c1c(Cl)cccc1Cl | – | 33000 | 24200 | > 30000 | > 50000
20.4 | 240 (≈ 107 µg/mL) | – | – | – | 220 | Cc1cc(=O)c2c(F)cncc2n1-c1c(Cl)cc(C#CCN2CCOCC2)cc1Cl | 1.1 | – | – | – | –
10.1 | 500 (≈ 246 µg/mL) | – | – | – | 100 | CS(=O)(=O)CCCOc1ncc(Cl)c2c1c(=O)cc(CO)n2-c1c(Cl)cccc1Cl | 40.7 | – | – | – | –
39.1 | 46 (≈ 16.2 µg/mL) | – | – | – | 2 | COc1cc(Cl)c(-n2c(C)cc(=O)c3c(F)cncc32)c(Cl)c1 | 1.1 | – | – | – | –
26.6 | 170 (≈ 64.1 µg/mL) | – | – | – | 140 | Cc1cc(=O)c2c(F)cncc2n1-c1c(Cl)cc(C#CCO)cc1Cl | 1.7 | – | – | – | –
32.6 | 430 (≈ 172 µg/mL) | – | – | – | – | Cc1cc(=O)c2c(OCCO)ncc(Cl)c2n1-c1c(Cl)cccc1Cl | 0.7 | – | – | – | –
16.6 | 230 (≈ 109 µg/mL) | – | – | – | 87 | Cc1cc(=O)c2c(OCC(O)CC(O)CO)ncc(Cl)c2n1-c1c(Cl)cccc1Cl (centres undefined) | 4.5 | – | – | – | –
6.9 | 300 (≈ 134 µg/mL) | – | – | – | 250 | O=c1cc(CO)n(-c2c(Cl)cccc2Cl)c2c(Cl)cnc(OC(CO)CO)c12 | 18.3 | – | – | – | –
